Measurements reported in patent US20080194646A1, “Methods For Avoiding Edema in the Treatment of Metabolic, Inflammatory, and Cardiovascular Disorders” (priority 2005, published 2008).
Read-outs that look alike come from different tables or passages of the source.

How the values were obtained:
[1] = target: cytochrome P450 2C9 (Homo sapiens, UniProt P11712); settings: comparison of enantiomers and racemate, cited from earlier work
[2] = tested on: rats; assay: separate animal studies, heart weight and fluid accumulation (rats); type: in vivo; settings: therapeutically relevant doses, data not shown
[3] = tested on: human subjects also receiving glyburide; assay: 14 days of treatment in human subjects also receiving glyburide; type: in vivo
Text: The data for pioglitazone (Actos) is taken from Goldberg R B et al., Diabetes Care 28(7):1547-54 (2005), which is incorporated herein by reference.

[4] = tested on: monkeys; assay: separate animal studies, heart weight and fluid accumulation (monkeys); type: in vivo; settings: therapeutically relevant doses, data not shown
[5] = tested on: type 2 diabetics with inadequate control on insulin; assay: two randomized, double-blind, placebo-controlled studies on type 2 diabetics with inadequate control on insulin; type: in vivo, human
Text: Example 9 presents the results of two randomized, double-blind, placebo-controlled, multi-centre studies on type 2 diabetics with inadequate control on insulin. […] Both studies were about 4 months long, with a stabilization/run in period for 2 to 4 weeks and a 3 month treatment period. Endpoints included fasting plasma glucose (FPG), HbA1c, weight, and the incidence of edema.

[6] = target: T1, PPARγ (Homo sapiens, UniProt P37231); assay: PPARγ partial agonism (Example 8, FIG. 6); type: cell-based
T1 sequence (P37231 1-505): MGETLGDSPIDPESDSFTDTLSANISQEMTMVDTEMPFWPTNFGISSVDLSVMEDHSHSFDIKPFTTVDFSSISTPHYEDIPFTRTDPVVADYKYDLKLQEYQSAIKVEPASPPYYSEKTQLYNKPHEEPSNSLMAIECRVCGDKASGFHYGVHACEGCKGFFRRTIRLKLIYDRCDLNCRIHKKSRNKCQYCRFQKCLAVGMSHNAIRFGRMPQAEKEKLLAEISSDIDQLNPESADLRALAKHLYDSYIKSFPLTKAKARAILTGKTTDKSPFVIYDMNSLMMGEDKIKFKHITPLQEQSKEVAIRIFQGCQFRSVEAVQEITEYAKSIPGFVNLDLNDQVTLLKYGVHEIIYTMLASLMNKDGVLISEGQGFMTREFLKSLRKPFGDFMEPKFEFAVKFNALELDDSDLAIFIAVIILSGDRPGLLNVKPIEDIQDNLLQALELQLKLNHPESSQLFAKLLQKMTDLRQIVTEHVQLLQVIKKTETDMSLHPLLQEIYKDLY

[7] = tested on: C57BL/6j ob/ob Mice; assay: glucose lowering activity of halofenate analogs in ob/ob mice (Example 14); type: in vivo; settings: 125 mg/kg oral gavage once a day for 1-3 days; Student unpaired t-test
Protocol: Male, 8-9 weeks old, C57BL/6J ob/ob mice were purchased from The Jackson Laboratory (Bar Harbor, Me., USA). Animals were housed (4-5 mice/cage) under standard laboratory conditions at 22±3° C. temperature and 50±20% relative humidity, and were maintained on a diet of Purina rodent chow and water ad libitum. Prior to treatment, blood was collected from the tail vein of each animal. Mice that had non-fasting plasma glucose levels between 250 and 500 mg/dl were used. Each treatment group consisted of 8-10 mice that were distributed so that the mean glucose levels were equivalent in each group at the start of the study. Mice were dosed orally by gavage once a day for 1-3 days with either vehicle, (−) halofenic acid, (+) analog 14, 29, 33, 34, 35, 36, 37, or 38 at 125 mg/kg or (−) analog 29, 36, 37 or 38 at 150 mg/kg. Compounds were delivered in a liquid formulation containing 5% (v/v) dimethyl sulfoxide (DMSO), 1% (v/v) tween 80 and 0.9% (w/v) methylcellulose. The gavage volume was 10 ml/kg. Blood samples were taken at 6 hours after the each dose and analyzed for plasma glucose. Food intake and body weight were measured daily. Plasma glucose concentrations were determined colorimetrically using glucose oxidase method (Sigma Chemical Co, St. Louis, Mo., USA). Significant difference between groups (comparing drug-treated to vehicle-treated) was evaluated using the Student unpaired t-test.

[8] = tested on: C57BL/6j ob/ob Mice; assay: anti-diabetic activity in C57BL/6j ob/ob mice (Example 13); type: in vivo; settings: oral gavage once a day for 1-4 days; for Potency: glucose lowering, 5 to 125 mg/kg, plasma glucose 6 hours after each dose
Protocol: The anti-diabetic activities of the compounds were evaluated in the C57BL/6j ob/ob Mice model.
Male, 7-9 weeks old, C57BL/6J ob/ob mice were purchased from The Jackson Laboratory (Bar Harbor, Me., USA). Animals were housed (4-5 mice/cage) under standard laboratory conditions at 22±3° C. temperature and 50±20% relative humidity, and were maintained on a diet of Purina rodent chow and water ad libitum. Prior to treatment, blood was collected from the tail vein of each animal. Mice that had non-fasting plasma glucose levels between 250 and 500 mg/dl were used. Each treatment group consisted of 8-10 mice that were distributed so that the mean glucose levels were equivalent in each group at the start of the study. Mice were dosed orally by gavage once a day for 1-4 days with vehicle and one or more dose of test compound at a dose ranging from 5 to 125 mg/kg. Compounds were delivered in a liquid formulation containing 5% (v/v) dimethyl sulfoxide (DMSO), 1% (v/v) Tween 80® and 0.9% (w/v) methylcellulose. The gavage volume was 10 ml/kg. Blood samples were taken at 6 hours after the each dose and analyzed for plasma glucose. Food intake and body weight were measured daily. Plasma glucose concentrations were determined colorimetrically using a commercial glucose oxidase method (Sigma Chemical Co, St. Louis, Mo., USA). Significant difference between groups (comparing drug-treated to vehicle-treated) was evaluated using the Student unpaired t-test.
The following table summarizes the anti-diabetic effects of selected compounds of the present invention and provides their relative potency. […] For example, a compound at 25 mg/kg that lowered the animal glucose level from 400 mg/dL (vehicle group value) to 250 mg/dL, is assigned the potency of +++.

cytochrome P450 2C9, sequence (P11712 whole entry): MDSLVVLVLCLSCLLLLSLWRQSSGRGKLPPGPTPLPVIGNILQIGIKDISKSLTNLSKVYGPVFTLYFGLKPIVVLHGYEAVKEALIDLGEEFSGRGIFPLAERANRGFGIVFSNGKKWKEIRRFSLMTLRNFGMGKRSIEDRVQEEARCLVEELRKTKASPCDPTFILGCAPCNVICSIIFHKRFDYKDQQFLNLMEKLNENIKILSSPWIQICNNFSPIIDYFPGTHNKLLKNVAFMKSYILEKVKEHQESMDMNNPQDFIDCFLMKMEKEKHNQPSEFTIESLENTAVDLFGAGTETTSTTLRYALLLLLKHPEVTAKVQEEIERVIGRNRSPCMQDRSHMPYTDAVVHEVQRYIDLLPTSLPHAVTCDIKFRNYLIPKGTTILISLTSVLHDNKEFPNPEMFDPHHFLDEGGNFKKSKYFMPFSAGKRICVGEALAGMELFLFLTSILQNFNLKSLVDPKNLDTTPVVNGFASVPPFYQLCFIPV

## O=C(O)C(Oc1cccc(C(F)(F)F)c1)c1ccc(Cl)cc1 (racemic) [racemic halofenic acid, 4-Chlorophenyl-(3-trifluoromethylphenoxy)-acetic Acid]
[1]
  inhibition of cytochrome P450 2C9: found to inhibit cytochrome P450 2C9

## O=C(O)C(Oc1cccc(C(F)(F)F)c1)c1ccc(Cl)cc1 (single isomer, unassigned; (+)) [(+) enantiomer of halofenic acid, (+) 4-chlorophenyl-(3-trifluoromethylphenoxy)-acetic acid]
[1]
  inhibition of cytochrome P450 2C9: quite potent

## CC(=O)NCCOC(=O)C(Oc1cccc(C(F)(F)F)c1)c1ccc(Cl)cc1 (single isomer, unassigned; (-)) [(−) halofenate, (−) 2-acetamidoethyl 4-chlorophenyl-(3-trifluoromethylphenoxy)acetate]
[2]
  heart weight or fluid accumulation: did not cause increases at therapeutically relevant doses in heart weight or fluid accumulation
[3]; human patients, 14 days of treatment, dose dependent (FIG. 20)
  hsCRP levels: lower hsCRP levels
[3]; patients also receiving glyburide, 14 days of treatment (FIG. 19)
  blood glucose levels: substantially lower blood glucose levels
[4]
  heart weight or fluid accumulation: did not cause increases at therapeutically relevant doses in heart weight or fluid accumulation
[5]; additional analyses, data not shown
  adverse effects on selected parameters: upper GI tract, liver, blood, kidney: not associated with an excess of adverse effects
[5]; additional results, data not shown
  serum triglycerides: lowered serum triglycerides substantially
[5]; both studies, dose range 200- to 600 mg (FIG. 17)
  incidence of edema formation compared to combined placebo groups: did not increase the incidence of edema formation
[5]; first study, 200 mg group
  Discontinued due to AE: 3 (4.1%)
[5]; first study, 400 mg group
  Discontinued due to AE: 3 (4.3%)
[5]; first study, 200- and 400 mg (FIG. 8)
  plasma glucose levels as judged by HbA1c compared to placebo: lowered plasma glucose levels as judged by HbA1c levels
[5]; first study, 200- and 400 mg (FIG. 9)
  edema formation compared to placebo: prevented edema formation
[5]; first study, 200- and 400 mg (FIG. 10)
  weight gain compared to placebo: did not induce weight gain
[5]; first study, 200- and 400 mg, 3 month treatment (FIG. 7)
  fasting plasma glucose levels compared to placebo: lowered fasting plasma glucose levels
[5]; first study, 200- and 400 mg, sites 60 and 70 removed (FIG. 15)
  plasma glucose levels as judged by HbA1c compared to placebo: lowered plasma glucose levels as judged by HbA1c levels
[5]; first study, 200- and 400 mg, sites 60 and 70 removed (FIG. 16)
  fasting plasma glucose levels compared to placebo: lowered fasting plasma glucose levels
[5]; second study, 600 mg (FIG. 11)
  fasting plasma glucose levels compared to placebo: lowered fasting plasma glucose levels
[5]; second study, 600 mg (FIG. 18)
  weight gain compared to placebo: did not induce weight gain
[5]; second study, 600 mg, all sites, placebo group demonstrated a comparable response (FIG. 12)
  plasma glucose levels as judged by HbA1c: lowered plasma glucose levels as judged by HbA1c levels in the experimental group substantially from baseline
[5]; second study, 600 mg, sites 60 and 70 removed (FIG. 13)
  plasma glucose levels as judged by HbA1c compared to placebo: lowered plasma glucose levels as judged by HbA1c levels
[5]; second study, 600 mg, sites 60 and 70 removed (FIG. 14)
  fasting plasma glucose levels compared to placebo: lowered fasting plasma glucose levels
[6]
  ability to induce PPARγ expression: a few fold
  antagonism of the agonist activity of rosiglitazone: significantly antagonizing the agonist activity of rosiglitazone

## O=C(O)C(Oc1cccc(C(F)(F)F)c1)c1ccc(Cl)cc1 (single isomer, unassigned; (-)) [(−)halofenic acid, (−) (3-trifluoromethylphenoxy) (4-chlorophenyl)acetic acid]
[7]
  plasma glucose concentrations vs vehicle: significantly reduced plasma glucose concentrations at 6 hours
[1]; listed as (−) enantiomer of halofenic acid
  inhibition of cytochrome P450 2C9: about twenty-fold less active

## O=C(O)C(Oc1ccccc1-c1nc2ccccc2o1)c1ccc(Cl)cc1 (centres unmarked) [Compound I-1]
[8]
  Potency: ++ (effective for glucose lowering at a dose of >25 mg/kg but <125 mg/kg)
  Insulin Level compared with vehicle: Lower

## O=C(O)C(Oc1ccccc1-c1nc2ccccc2o1)c1cccc(C(F)(F)F)c1 (centres unmarked) [Compound I-3]
[8]
  Potency: + (effective for glucose lowering at the dose of ≧125 mg/kg)
  Insulin Level compared with vehicle: Lower

## O=C(O)C(Oc1ccc(C(F)(F)F)cc1-c1nc2ccccc2o1)c1cccc(C(F)(F)F)c1 (centres unmarked) [Compound I-89]
[8]
  Potency: +++ (effective for glucose lowering at a dose of ≦25 mg/kg)
  Insulin Level compared with vehicle: Lower

## O=C(O)C(Oc1ccc(Cl)cc1-c1nc2ccccc2o1)c1ccc(Cl)cc1 (centres unmarked) [Compound I-190]
[8]
  Potency: +++ (effective for glucose lowering at a dose of ≦25 mg/kg)
  Insulin Level compared with vehicle: Lower

## O=C(O)C(Oc1ccc(Cl)cc1-c1nc2ccccc2o1)c1cccc(C(F)(F)F)c1 (centres unmarked) [Compound I-191]
[8]
  Potency: +++ (effective for glucose lowering at a dose of ≦25 mg/kg)
  Insulin Level compared with vehicle: Lower

## COc1ccc(C(Oc2ccc(Cl)cc2-c2nc3ccccc3o2)C(=O)O)cc1 (centres unmarked) [Compound I-193]
[8]
  Potency: +++ (effective for glucose lowering at a dose of ≦25 mg/kg)
  Insulin Level compared with vehicle: Lower

## O=C(O)C(Oc1ccc(Cl)cc1-c1nc2ccccc2o1)c1cccc(Cl)c1 (centres unmarked) [Compound I-194]
[8]
  Potency: +++ (effective for glucose lowering at a dose of ≦25 mg/kg)
  Insulin Level compared with vehicle: Lower

## O=C(O)C(Oc1ccc(C(F)(F)F)cc1-c1nc2ccccc2o1)c1ccccc1 (centres unmarked) [Compound I-369]
[8]
  Potency: +++ (effective for glucose lowering at a dose of ≦25 mg/kg)
  Insulin Level compared with vehicle: Lower

## O=C(O)C(Oc1ccc(C(F)(F)F)cc1-c1nc2ccccc2o1)c1ccc(Cl)cc1 (centres unmarked) [Compound I-372]
[8]
  Potency: +++ (effective for glucose lowering at a dose of ≦25 mg/kg)
  Insulin Level compared with vehicle: Lower

## CC(Oc1ccc(C(F)(F)F)cc1-c1nc2ccccc2o1)(C(=O)O)c1ccccc1 (centres unmarked) [Ia-365]
[8]
  Potency: +++ (effective for glucose lowering at a dose of ≦25 mg/kg)
  Insulin Level compared with vehicle: Lower

## CC(Oc1ccc(C(F)(F)F)cc1-c1nc2ccccc2o1)(C(=O)O)c1ccccc1 (centres unmarked) [Ia-366]
[8]
  Potency: +++ (effective for glucose lowering at a dose of ≦25 mg/kg)
